The results in this text go back to ChEMBL document CHEMBL1275491, “Role of plasma proteins in pharmacokinetics of micafungin, an antifungal antibiotic, in analbuminemic rats” (Antimicrob Agents Chemother, 2008).

For data set [1], the system named is Rattus norvegicus. As to the kind of experiment: Plasma protein binding in analbuminemic Nagase rat at 1 mg/kg, iv administered as single dose by high-performance liquid chromatography. In kind it is ADME, organism-based. The arrangement: dose 1 mg/kg, route intravenous. The conditions noted are these: in vivo.
In data set [2] the test system is Rattus norvegicus. As to the kind of experiment: Binding affinity to gamma globulin in rat plasma at 1 mg/kg, iv administered as single dose. It counts as functional.
The nature of data set [3]: Volume of distribution at steady state in analbuminemic Nagase rat plasma at 1 mg/kg, iv administered as single dose by high-performance liquid chromatography. In kind it is ADME, organism-based. The arrangement: dose 1 mg/kg, route intravenous. The note with it: read-out: Vdss.
For the next data set, the target named is Albumin (Homo sapiens, UniProt P02768). As to the kind of experiment: Binding affinity to human serum albumin in cell-free system.
Data set [4] concerns Rattus norvegicus. Briefly: Binding affinity to HDL in rat plasma at 1 mg/kg, iv administered as single dose. It counts as ADME, organism-based. Further details: dose 1 mg/kg, route intravenous. The conditions noted are these: in vivo.
Data set [5] can be described thus: Systemic clearance in Sprague-Dawley rat plasma at 1 mg/kg, iv administered as single dose by high-performance liquid chromatography. In kind it is ADME, organism-based. The arrangement: dose 1 mg/kg, route intravenous.
Data set [6] is described as follows: Systemic clearance in analbuminemic Nagase rat plasma at 1 mg/kg, iv administered as single dose by high-performance liquid chromatography. It counts as ADME, organism-based. Further details: dose 1 mg/kg, route intravenous.
The nature of data set [7]: Volume of distribution at steady state in Sprague-Dawley rat plasma at 1 mg/kg, iv administered as single dose by high-performance liquid chromatography. In kind it is ADME, organism-based. Further details: dose 1 mg/kg, route intravenous. The note with it: read-out: Vdss.
For data set [8], the system named is Rattus norvegicus. Briefly: Plasma protein binding in Sprague-Dawley rat at 1 mg/kg, iv administered as single dose by high-performance liquid chromatography. In kind it is ADME, organism-based. The arrangement: dose 1 mg/kg, route intravenous. The note with it: in vivo.

Starred links: 1 amine or outer side, 2 acyl side, 3 side chain; linkers in the order of their positions; H or OH if unused. Positions of bridges follow the written chain, without caps; N, C: chain ends. Non-standard residues stand in square brackets, D forms with d. Residues, ends and D or L forms follow the SMILES beside them. *: point of attachment. hTyr(3S-OH,4S-OH,3'-OSO3H) = N[C@H](C(=O)O)[C@H](O)[C@@H](O)c1ccc(O)c(OS(=O)(=O)O)c1; Orn(4R-OH,5R-OH) = O=C([C@H](C[C@@H](O)[C@@H](O)N[*:3])N[*:1])[*:2]; Pro(3S-OH,4S-Me) = C[C@H]1CN[C@H](C(=O)O)[C@H]1O; X1 = CCCCCOc1ccc(-c2cc(-c3ccc(C(=O)*)cc3)no2)cc1; Gln(3R-OH) = NC(=O)C[C@@H](O)[C@H](N)C(=O)O; Hyp = O=C(O)[C@@H]1C[C@@H](O)CN1

Sequence of Albumin (P02768 whole entry): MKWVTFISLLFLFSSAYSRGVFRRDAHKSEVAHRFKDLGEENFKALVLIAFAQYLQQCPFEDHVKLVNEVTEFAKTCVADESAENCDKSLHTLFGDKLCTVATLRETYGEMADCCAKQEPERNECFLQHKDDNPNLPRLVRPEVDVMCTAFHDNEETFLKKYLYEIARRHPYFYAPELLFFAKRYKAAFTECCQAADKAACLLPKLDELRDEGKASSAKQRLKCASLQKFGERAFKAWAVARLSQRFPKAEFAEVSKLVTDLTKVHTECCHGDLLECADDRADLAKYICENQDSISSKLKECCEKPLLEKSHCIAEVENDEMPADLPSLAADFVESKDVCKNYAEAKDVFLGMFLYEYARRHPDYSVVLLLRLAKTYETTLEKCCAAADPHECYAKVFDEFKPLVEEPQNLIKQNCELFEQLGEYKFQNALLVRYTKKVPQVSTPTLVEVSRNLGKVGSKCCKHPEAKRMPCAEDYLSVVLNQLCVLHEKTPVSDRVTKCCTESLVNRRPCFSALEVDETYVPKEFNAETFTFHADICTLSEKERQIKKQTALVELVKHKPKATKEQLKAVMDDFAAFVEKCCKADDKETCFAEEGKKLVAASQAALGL

As for `CCCCCOc1ccc(-c2cc(-c3ccc(C(=O)N[C@H]4C[C@@H](O)[C@@H](O)NC(=O)[C@@H]5[C@@H](O)[C@@H](C)CN5C(=O)[C@H]([C@H](O)CC(N)=O)NC(=O)[C@H]([C@H](O)[C@@H](O)c5ccc(O)c(OS(=O)(=O)O)c5)NC(=O)[C@@H]5C[C@@H](O)CN5C(=O)[C@H]([C@@H](C)O)NC4=O)cc3)no2)cc1` [MICAFUNGIN] (X1-[Orn(4R-OH,5R-OH)]T[Hyp][hTyr(3S-OH,4S-OH,3'-OSO3H)][Gln(3R-OH)][Pro(3S-OH,4S-Me)]; lactam 1-C), the Activity is 99.8% in the data set on Rattus norvegicus [1]; 35.1% in the data set with Rattus norvegicus [2]; 99.7% on Albumin; 97.4% in the data set on Rattus norvegicus [4]; 99.7% with Rattus norvegicus [8]. For the same molecule, the Vd in data set [3] turned out to be 0.52 L/kg; in data set [7], 0.54 L/kg. Further, the figures for the clearance in [5] and in data set [6] were 1.15 mL/min/kg and 1.2 mL/min/kg, respectively.
